Assay results reported in ChEMBL document CHEMBL5131391, “One-pot three-component synthesis of novel pyrazolo[3,4-b]pyridines as potent antileukemic agents” (Eur J Med Chem, 2022).
Calls of active or inactive are those of the source. The calls are words filed in the database; no cut-off is given here.

How the values were obtained:
RS4-11 [1] = assay: Downregulation of MEIS1 protein expression in human RS4-11 cells at 5 to 20 uM measured after 24 hrs by Western blot analysis; format: functional, cell-based; conditions: dose 5-20 µM
CCRF-CEM = assay: Antiproliferative activity against human CEM cells assessed as reduction in cell viability incubated for 72 hrs by resazurin dye based assay; format: functional
ML-2 = assay: Antiproliferative activity against human ML-2 cells assessed as reduction in cell viability incubated for 72 hrs by resazurin dye based assay; format: functional; conditions: ML-2, 72 h
RS4-11 [2] = assay: Induction of cell cycle arrest in human RS4-11 cells assessed as accumulation of cells in G2/M phase measured after 48 hrs by PI staining based flow cytometry analysis; format: functional; conditions: dose 1.25-10 µM, DDE = dose-dependent effect
RS4-11 [3] = assay: Antiproliferative activity against human RS4-11 cells assessed as reduction in cell viability incubated for 72 hrs by resazurin dye based assay; format: functional; conditions: RS4-11, 72 h
RS4-11 [4] = assay: Downregulation of HOXA9 protein expression in human RS4-11 cells at 5 to 20 uM measured after 24 hrs by Western blot analysis; format: functional, cell-based; conditions: dose 5-20 µM
K562 = assay: Antiproliferative activity against human K562 cells assessed as reduction in cell viability incubated for 72 hrs by resazurin dye based assay; format: functional; conditions: K562, 72 h
RS4-11 [5] = assay: Induction of cell cycle arrest in human RS4-11 cells assessed as accumulation of cells in subG1 phase at 1.25 to 10 uM measured after 72 hrs by PI staining based flow cytometry analysis; format: functional; conditions: dose 1.25-10 µM
MV4-11 = assay: Antiproliferative activity against human MV4-11 cells assessed as reduction in cell viability incubated for 72 hrs by resazurin dye based assay; format: functional; conditions: MV4-11, 72 h
RS4-11 [6] = assay: Induction of cell cycle arrest in human RS4-11 cells assessed as accumulation of cells in G2/M phase at 1.25 to 10 uM measured after 72 hrs by PI staining based flow cytometry analysis; format: functional; conditions: dose 1.25-10 µM
KOPN-8 = assay: Antiproliferative activity against human KOPN-8 cells assessed as reduction in cell viability incubated for 72 hrs by resazurin dye based assay; format: functional; conditions: KOPN-8, 72 h

Row | IC50 (CCRF-CEM) [nM] | IC50 (RS4-11 [3]) [nM] | IC50 (K562) [nM] | IC50 (MV4-11) [nM] | Compound | Activity (RS4-11 [1]) | IC50 (ML-2) [nM] | Activity (RS4-11 [2]) | Activity (RS4-11 [4]) | Activity (RS4-11 [5]) | Activity (RS4-11 [6]) | IC50 (KOPN-8) [nM]
1 | 6700 | 1000 | 2100 | 1600 | COc1ccc(-c2nc3c(c(-c4ccccc4)nn3-c3ccccc3)c(-c3ccc(O)cc3)c2C#N)cc1 | Active | 400 | Dde | Active | Active | Active | 200
2 | > 25000 | > 25000 | 5900 | > 25000 | N#Cc1c(-c2ccccc2)nc2c(c(-c3ccccc3)nn2-c2ccccc2)c1-c1ccc2c(c1)OCO2 |  | > 25000 |  |  |  |  | > 25000
